Source: US20110118236A1, “HETEROCYCLIC COMPOUND” (priority 2008, published 2011)

These compounds were tested against T1, AMPA receptor (human GluR1 flip/stargazin expressed in CHO-K1 cells) (Homo sapiens, UniProt P42261) (assay: Assay of AMPA receptor potentiation by compounds, using calcium influx as an indicator). Details: compound 30 μM with glutamic acid final concentration 3 mM, 100% = glutamic acid 3 mM + 300 μM cyclothiazide, 0% = glutamic acid only, change over 3 minutes.
T1 construct: expressed in transfected cells; host or cells: CHO-K1
Format: cell-based
Text: (1) Construction of Expression Genes
Human GluR1 flip cDNA was amplified by PGR using the forward primer ACTGAATTCGCC […] (SEQ ID: 1), and the reverse primer CCGCGGC […] (SEQ ID: 2), which had been artificially synthesized using human brain-derived cDNA (BD Bioscience) as template. The amplified product was digested with the restriction enzymes EcoRI and NotI. (Takara Shuzo Co., Ltd.), and was then incorporated at the same site of peDNA3.1(+) (Invitrogen) to construct; the pcDNA3.1(+)/human GluR1 flip gene. Human stargazin cDNA was amplified by PCR using the forward primer GGTC TCGAGOCCACCATGGOGCTGTTTGATCGAGGTGTTCA (SEQ ID: δ 3), and the reverse primer […] (SEQ ID: 4), which had been artificially synthesized using human hippocampal cDNA as template. The amplified product was digested with the restriction enzymes XhoI and BamHI (Takara Shuzo Co., Ltd.), and was then incorporated at the same site of pcDNA3.1(−) (Invitrogen) to construct the pcDN.A3.1. Zeo(−)/human stargazin gene.
(2) Construction of Cells Expressing GluR1 Flip/Stargazin
CHO-K1 cells passaged in culture media (Ham's F12 media (Invitrogen) supplemented with […] inactivated fetal bovine serum (Morgate), penicillin, and streptomycin (Invitrogen)) were separated using 0.05% trypsin diluted with D-PBS(−), and 0.53 mM EDTA (Invitrogen). The separated cells were suspended in culture media and harvested by centrifugation at 1,000 rpm. The harvested cells were re-suspended in D-PBS(−) and introduced into a 0.4 cm electroporation cuvette (BioRad). The pcDNA3.1(+)/human GluR1 flip gene (5 μg) and pcDNA3.1 Zeo(−)/human stargazin gene (15 μg) were added, and were introduced into the CHO-K1 cells using a Gene Pulser II (BioRad) at 950 μFd and […]. The cells were incubated overnight in culture media, and on the next day 96-well plates were seeded with 250 cells/well using selection media (Zeocin (Invitrogen) in a concentration of 250 μg/mL in culture media). Drug resistant clones were selected, and clones expressing GluR1 flip/stargazin were selected by the following assay using calcium influx as an indicator.
(3) Assay of AMPA receptor potentiation by compounds, using calcium influx as an indicator 96-well black-bottomed clear plates (Costar) were seeded with the CHO-K1/GluR1 flip/stargazin expressing cells (2×10^4 cells/well), and were incubated for 2 days at 37° C. in a CO2 incubator (Sanyo). The cell plate media was removed, and assay buffer A (D-MEM (Invitrogen), 0.1% BSA (Serological Protein, Inc.), and 20 mM HEPES (invitrogen)) was added to a concentration of 50 μL/well. A calcium indicator (Calcium Kit B-Fluo4 for TKB, Dojindo Laboratories) containing 2.5 mM probenecid (Dojindo Laboratories) was added to a concentration of 50 μL/well, and the plates were allowed to stand for 1 hour at 37° C. in a CO2 incubator. The cell plates were set up on a CellLux (PerkinElmer), a 50 pt mixture of 9 mM glutamic acid diluted (final concentration 3 mM) with assay buffer B (HBSS (Invitrogen), 0.1% BSA, and 20 mM HEPES) and the compound to be tested (concentration of compound to be detected: 30 μM) was added, and the change in the level of fluorescence over a period of 3 minutes was determined. The compound activity was calculated using the following equation, wherein the change in fluorescence in wells containing glutamic acid (final concentration 3 mM) and 300 μM cyclothiazide (TOCRIS) was defined as 100%, and the change in fluorescence in wells containing only glutamic acid (final concentration 3 mm) was defined as 0%.
Activity (%)=(X−C)/(T−C)×1.00
T: change in fluorescence in wells containing glutamic acid (final concentration 3 mM) and 300 μM cyclothiazide C: change in fluorescence in wells containing only glutamic acid (final concentration 3 mM) X: change in fluorescence in wells containing compound to be detected

T1 sequence (P42261 19-906 isoform P42261-2 limits assumed): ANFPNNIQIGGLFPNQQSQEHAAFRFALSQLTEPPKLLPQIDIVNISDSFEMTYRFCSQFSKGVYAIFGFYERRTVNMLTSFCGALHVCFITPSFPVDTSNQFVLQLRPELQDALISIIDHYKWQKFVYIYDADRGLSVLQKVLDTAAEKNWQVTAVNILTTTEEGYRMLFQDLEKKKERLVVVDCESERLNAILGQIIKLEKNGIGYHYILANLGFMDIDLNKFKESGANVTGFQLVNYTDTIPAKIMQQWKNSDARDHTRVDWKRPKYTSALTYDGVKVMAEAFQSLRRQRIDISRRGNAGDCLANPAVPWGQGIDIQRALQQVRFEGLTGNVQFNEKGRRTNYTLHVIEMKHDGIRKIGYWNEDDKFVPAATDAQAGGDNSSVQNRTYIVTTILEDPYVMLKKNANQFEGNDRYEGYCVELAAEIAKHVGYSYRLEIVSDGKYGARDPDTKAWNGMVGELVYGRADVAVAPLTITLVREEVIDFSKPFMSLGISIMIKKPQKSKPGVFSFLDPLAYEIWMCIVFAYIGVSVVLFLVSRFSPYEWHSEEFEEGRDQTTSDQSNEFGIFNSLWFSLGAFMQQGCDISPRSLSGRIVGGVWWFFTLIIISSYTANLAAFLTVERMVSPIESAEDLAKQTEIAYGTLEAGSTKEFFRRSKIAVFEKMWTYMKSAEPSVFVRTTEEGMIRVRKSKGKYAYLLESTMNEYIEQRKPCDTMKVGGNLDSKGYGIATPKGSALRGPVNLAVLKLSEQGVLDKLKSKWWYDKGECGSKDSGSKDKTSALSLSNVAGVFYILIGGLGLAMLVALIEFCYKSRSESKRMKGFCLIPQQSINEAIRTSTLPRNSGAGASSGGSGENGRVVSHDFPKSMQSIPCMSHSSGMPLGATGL
T1 sequence (Q9Y698 whole entry partner): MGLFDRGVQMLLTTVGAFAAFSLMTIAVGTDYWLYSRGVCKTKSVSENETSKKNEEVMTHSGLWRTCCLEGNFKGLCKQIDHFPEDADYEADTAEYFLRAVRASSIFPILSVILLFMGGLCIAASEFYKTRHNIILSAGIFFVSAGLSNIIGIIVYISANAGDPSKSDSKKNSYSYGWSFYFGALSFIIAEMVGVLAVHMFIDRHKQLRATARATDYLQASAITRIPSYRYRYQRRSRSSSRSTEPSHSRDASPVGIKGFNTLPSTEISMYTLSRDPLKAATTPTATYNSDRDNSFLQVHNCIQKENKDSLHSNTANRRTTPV

Row | SMILES | Activity (%) of AMPA receptor potentiation (change in fluorescence, calcium influx) [%]
1 | O=C(c1csc(Cn2nc(C(F)(F)F)c3c2CCCC3)n1)N1CCCC1 [Example 145, 1-{[4-(Pyrrolidin-1-ylcarbonyl)-1,3-thiazol-2-yl]methyl}-3-(trifluoromethyl)-4,5,6,7-tetrahydro-1-H-indazole] | 85
2 | NC(=O)c1c(NC(=O)Cn2nc(C(F)(F)F)c3c2CNCC3)sc2c1CCCC2 [Example 185, 2-({[3-(Trifluoromethyl)-4,5,6,7-tetrahydro-1H-pyrazolo[3,4-c]pyridin-1-yl]acetyl}amino)-4,5,6,7-tetrahydro-1-benzothiophene-3-carboxamide] | 88
3 | NC(=O)c1c(NC(=O)Cn2nc(C(F)(F)F)c3c2CCNC3)sc2c1CCCC2 [Example 190, 2-({[3-(Trifluoromethyl)-4,5,6,7-tetrahydro-1H-pyrazolo[4,3-c]pyridin-1-yl]acetyl}amino)-4,5,6,7-tetrahydro-1-benzothiophene-3-carboxamide] | 70
4 | COc1ccc(Cl)cc1NC(=O)Cn1nc(C(F)(F)F)c2c1CNCC2 [Example 196, N-(5-Chloro-2-methoxyphenyl)-2-[3-(trifluoromethyl)-4,5,6,7-tetrahydro-1H-pyrazolo[3,4-c]pyridin-1-yl]acetamide] | 80
5 | COc1ccc(Cl)cc1NC(=O)Cn1nc(C(F)(F)F)c2c1CCN(C(C)=O)C2 [Example 226, 2-[5-Acetyl-3-(trifluoromethyl)-4,5,6,7-tetrahydro-1H-pyrazolo[4,3-c]pyridin-1-yl]-N-(5-chloro-2-methoxyphenyl)acetamide] | 74
6 | CNC(=O)N1CCc2c(c(C(F)(F)F)nn2CC(=O)Nc2cc(Cl)ccc2OC)C1 [Example 229, 1-{2-[(5-Chloro-2-methoxyphenyl)amino]-2-oxoethyl}-N-methyl-3-(trifluoromethyl)-1,4,6,7-tetrahydro-5H-pyrazolo[4,3-c]pyridine-5-carboxamide] | 78
7 | FC(F)(F)c1nn(Cc2nnc(-c3cccs3)o2)c2c1CCCC2 [Example 272, 1-[(5-Thiophen-2-yl-1,3,4-oxadiazol-2-yl)methyl]-3-(trifluoromethyl)-4,5,6,7-tetrahydro-1H-indazole] | 86
8 | Cc1cc(C)n2ncc(-c3noc(Cn4nc(C(F)(F)F)c5c4CCCC5)n3)c2n1 [Example 276, 5,7-Dimethyl-3-(5-{[3-(trifluoromethyl)-4,5,6,7-tetrahydro-1H-indazol-1-yl]methyl}-1,2,4-oxadiazol-3-yl)pyrazolo[1,5-a]pyrimidine] | 79
9 | FC(F)(F)c1nn(Cc2nc(-c3cnccn3)no2)c2c1CCCC2 [Example 277, 1-[(3-Pyrazin-2-yl-1,2,4-oxadiazol-5-yl)methyl]-3-(trifluoromethyl)-4,5,6,7-tetrahydro-1H-indazole] | 75
10 | Cc1cc(C(F)(F)F)n2ncc(-c3noc(Cn4nc(C(F)(F)F)c5c4CCC5)n3)c2n1 [Example 278] | 82
11 | FC(F)(F)c1nn(Cc2nc(-c3cccs3)no2)c2c1COCC2 [Example 279, 1-[(3-Thiophen-2-yl-1,2,4-oxadiazol-5-yl)-methyl]-3-(trifluoromethyl)-1,4,6,7-tetrahydropyrano[4,3-c]pyrazole] | 62
12 | CSc1sc(C(=O)NCCn2nc(C(F)(F)F)c3c2CCCC3)c2nc(C)n(C)c12 [Example 280, 1,2-Dimethyl-6-(methylsulfanyl)-N-{2-[3-(trifluoromethyl)-4,5,6,7-tetrahydro-1H-indazol-1-yl]ethyl}-1H-thieno[3,4-d]imidazole-4-carboxamide] | 86
13 | Cc1cc(C(F)(F)F)n2ncc(-c3noc(Cn4nc(C(F)(F)F)c5c4CCCC5)n3)c2n1 [Example 283, 5-Methyl-7-(trifluoromethyl)-3-(5-{[3-(trifluoromethyl)-4,5,6,7-tetrahydro-1H-indazol-1-yl]methyl}-1,2,4-oxadiazol-3-yl)pyrazolo[1,5-a]pyrimidine] | 76
14 | CSc1sc(C(=O)NCCn2nc(C(F)(F)F)c3c2CCCC3)c2c1C(O)CCC2 (centres unmarked) [Example 287, 4-Hydroxy-3-(methylsulfanyl)-N-{2-[3-(trifluoromethyl)-4,5,6,7-tetrahydro-1H-indazol-1-yl]ethyl}-4,5,6,7-tetrahydro-2-benzothiophene-1-carboxamide] | 68
